Test results reported in patent publication US20110034371A1, “L. CASEI RHAMNOSUS SECRETED FACTORS AND USE THEREOF” (priority 2009, published 2011).

Key:
[1] = test system: THP-1 cells; test: Annexin V-FITC and PI staining, flow cytometry: apoptosis of THP-1 cells; type: cell-based, human
Description: (§1) Lymphocytes, monocytes and THP-1 cells (10^6 per test) were collected after incubation with LcrS, 3.125-25 μg mL^−1, for various times. After washing twice with PBS, the cells were resuspended in Annexin V binding buffer (10 mM HEPES-NaOH (pH 7.4), 140 mM NaCl, and 2.5 mM CaCl2). After centrifugation, the cells were incubated in 500 μl of the same buffer containing 1.25 it FITC-conjugated Annexin V (BD PharMingen, San Diego, Calif., USA) at room temperature for 15 min in the dark. Data acquisition and analysis were performed by the Becton-Dickinson FACSan flow cytometer (Franklin Lakes, N.J., USA) using CellQuest software (Becton-Dickinson, Oxford, UK). […]
as §1, with “500 W” for “500 μl”, “1.25 μl” for “1.25 it”
as §1, with “1.25 μl” for “1.25 it”
The TGF-β regulates a wide variety of biological functions including apoptosis. The TGF-β production was increasing in the LcrS5-30 treated THP-1 cells. It was reasonable to postulate that apoptosis might be triggered by TGF-β rather than the LcrS5-30. To confirm this assumption, a pharmacological inhibitor, SB431542, would be applied. The percentages of apoptotic cells in 10 ng mL^−1 and 1 ng mL^−1 TGF-β exposed preparations were 18.9±0.44% and 16.57±0.67%, respectively (FIG. 8B). Treatment with 12.5 μg mL^−1 or 25 μg mL^−1 of the LcrS5-30 induced dissimilar level of apoptosis of THP-1 cells that were 26.35±0.77% and 74.96±0.38%, respectively.

[2] = test system: human peripheral blood T cells; conditions: 18 h culture, 5 μg mL^−1; cited from earlier work

Compound: NC(=O)c1ccc(-c2nc(-c3ccc4c(c3)OCO4)c(-c3ccccn3)[nH]2)cc1 [SB-431542]
- blocking of TGF-β1-induced apoptosis ([1]; 1 μg mL^−1 inhibitor, 24 h): significantly blocked
- blocking of apoptosis ([1]; 1 μg mL^−1 inhibitor, 24 h): significantly blocked

Compound: TGF-β: anti-inflammatory cytokine applied to THP-1 cells at 1 and 10 ng mL^−1
- percentage of apoptotic cells ([1]; 1 ng mL^−1, 24 h): 16.57±0.67%
- percentage of apoptotic cells ([1]; 10 ng mL^−1, 24 h): 18.9±0.44%
- induced apoptosis in the presence of TGF-β inhibitor SB431542 ([1]; One ng mL^−1, 1 μg mL^−1 SB431542, 24 h): SB431542 sensitive

Compound: infliximab
- killing activity (as much as) [2]: ≤ 50.6%
